The target in test [1] is T1, FCA protein (Arabidopsis thaliana, UniProt O04425).
T1 sequence (O04425 1-747 isoform O04425-1): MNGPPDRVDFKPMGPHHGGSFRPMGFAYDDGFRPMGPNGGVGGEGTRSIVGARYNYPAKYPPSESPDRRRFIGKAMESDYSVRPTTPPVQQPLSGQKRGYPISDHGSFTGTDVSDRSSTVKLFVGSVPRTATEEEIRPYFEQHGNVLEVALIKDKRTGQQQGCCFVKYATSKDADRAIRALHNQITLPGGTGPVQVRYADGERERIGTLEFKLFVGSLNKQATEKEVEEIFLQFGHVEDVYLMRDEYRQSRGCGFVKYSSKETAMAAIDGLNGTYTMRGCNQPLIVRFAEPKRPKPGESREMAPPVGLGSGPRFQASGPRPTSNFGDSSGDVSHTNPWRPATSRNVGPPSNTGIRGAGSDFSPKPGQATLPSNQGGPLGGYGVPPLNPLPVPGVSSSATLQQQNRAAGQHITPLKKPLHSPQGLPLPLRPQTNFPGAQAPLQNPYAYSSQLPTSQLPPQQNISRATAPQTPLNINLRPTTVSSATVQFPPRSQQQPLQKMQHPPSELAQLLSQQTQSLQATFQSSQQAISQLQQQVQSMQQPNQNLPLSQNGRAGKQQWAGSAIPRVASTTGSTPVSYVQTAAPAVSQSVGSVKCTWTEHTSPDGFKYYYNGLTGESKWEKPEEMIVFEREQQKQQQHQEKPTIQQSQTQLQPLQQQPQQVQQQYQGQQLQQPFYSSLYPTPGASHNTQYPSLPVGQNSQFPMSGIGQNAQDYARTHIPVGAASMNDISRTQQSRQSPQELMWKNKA
Kind of test: ABA binding assay with purified recombinant FCA. Details: other: in the absence of FY, at 15 min; other: in the absence of FY, at 45 min; fused on or other part: GST fused on. Conditions: in the absence of FY. As for the experimental part: (§1) […] The mixture was then rapidly filtered through a nitrocellulose membrane, washed with 0.5× binding buffer, air dried and counted in a scintillation counter (Wallac 1414 WinSpectral v1.40). Heat denatured FCA protein was used to used determine the protein nature of the FCA and BSA was used as a control. All binding studies were carried out using three different GST affinity chromatography protein purifications with triplicate assays for each purification. […] Specific binding was calculated by taking the difference for assays with only ^3H^+-ABA (total binding) and assays that also contained 5 μM (±)-ABA added at the same time as ^3H^+-ABA (non-specific binding). Binding was represented as the number of moles of ^3H^+-ABA per mole of FCA protein.

Test [2] deals with T1, FCA protein. Kind of test: ABA binding assay with purified recombinant FCA. Details: Kd; other: analog added in higher concentrations than 3H+-ABA (20-5000 nM); other: Scatchard analysis, r^2=0.88; other: in presence of 5 μM unlabelled (+)-ABA; pH range of maximum; fused on or other part: GST fused on for purification. How it is done:
as §1

The next test deals with FCA-RRM. Kind of test: Preliminary ABA-binding assays using crude lysate from FCA-RRM. Details: species or system Arabidopsis. How it is done: All binding assays were carried out at a final volume of 200 μL at 4° C. for 45 minutes. The mixture was then rapidly filtered through a nitrocellulose membrane, washed with 0.5× binding buffer, air dried and counted in a scintillation counter (Wallac 1414 WinSpectral v1.40). Heat denatured FCA protein was used to used determine the protein nature of the FCA and BSA was used as a control. […] […] Specific binding was calculated by taking the difference for assays with only ^3H^+-ABA (total binding) and assays that also contained 5 μM (±)-ABA added at the same time as ^3H^+-ABA (non-specific binding). Binding was represented as the number of moles of ^3H^+-ABA per mole of FCA protein.

A further test addresses ABAP1 (Hordeum vulgare, UniProt Q9LLX3). Briefly: ABA binding assay with purified recombinant ABAP1. Also noted: species or system barley. As for the experimental part:
Other additions or changes to the incubation system are discussed in the figure legends. All binding assays were carried out at a final volume of 150 μL at 4° C. for 1 hour. The mixture was then rapidly filtered through a nitrocellulose membrane, washed with 5 mL, of cold 0.5× binding buffer by rapid filtration, dried in air and counted in a scintillation counter (Wallac 1414 WinSpectral v1.40). […] The DCC binding mixture was maintained for 15 minutes on ice before centrifugation to precipitate DCC. The resulted supernatant was then counted in a scintillation counter to determine the binding activity. […] Heat denatured ABAP1 protein was used to determine the protein nature of the ABAP1 and BSA was used as a control. All binding studies were carried out using three different protein purifications with triplicate assays for each purification. […] Binding was represented as the number of moles of ^3H^+-ABA per mole of ABAP1 protein.

Sequence of ABAP1 (Q9LLX3 entry or part of it): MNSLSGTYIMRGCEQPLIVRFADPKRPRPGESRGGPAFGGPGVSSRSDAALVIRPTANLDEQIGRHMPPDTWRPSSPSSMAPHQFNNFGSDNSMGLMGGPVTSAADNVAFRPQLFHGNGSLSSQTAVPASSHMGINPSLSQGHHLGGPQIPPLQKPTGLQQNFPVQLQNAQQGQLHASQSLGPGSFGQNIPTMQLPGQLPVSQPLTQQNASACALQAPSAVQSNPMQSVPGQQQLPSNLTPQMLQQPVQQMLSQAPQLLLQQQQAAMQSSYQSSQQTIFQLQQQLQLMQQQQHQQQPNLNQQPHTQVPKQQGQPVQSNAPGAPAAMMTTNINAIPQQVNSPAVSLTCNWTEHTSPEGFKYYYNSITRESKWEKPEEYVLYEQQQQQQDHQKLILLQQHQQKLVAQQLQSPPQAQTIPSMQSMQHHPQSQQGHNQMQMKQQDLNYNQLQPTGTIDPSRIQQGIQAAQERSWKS

On to abscisic acid [ABA], for which the “saturation of FCA 3H-(+)-ABA binding activity” value on FCA protein [1] (at 15 min) is given as “approximately 50%”; at FCA protein [1] (at 45 min), “approximately 95%”. Moreover, the “binding corresponding to 100% binding activity” value on FCA protein [2] (50 nM 3H-(+)-ABA, FIG. 16) is given as “approximately 0.52 mol ABA mol^−1 protein”. In addition, at FCA protein [2] (Scatchard analysis, r^2=0.88), the maximum binding turned out to be 0.72 mol mol^−1 protein. At FCA protein [2] (Scatchard plot), the “ratio of ABA bound to FCA” value was “approximately 0.72 mol ABA mol^−1 protein”. Also, the non-specific binding entry at FCA protein [2] (in presence of 5 μM unlabelled (+)-ABA) is “less than 11 % of the total binding”; at ABAP1 (in presence of 5 μM unlabelled ABA), “less than 10 % of the total binding”. Also, the “3H+-ABA binding” value in the test with FCA-RRM is listed as “did not show any”. Also, the “pH of maximum binding activity” value on ABAP1 (3H+-ABA binding at varying pH) is given as 7.3. For the same substance, on ABAP1 (Scatchard plot analysis, r^2=0.94), the maximum specific binding amounted to 0.8 mol ABA mold protein. The “ratio of ABA bound to ABAP1” value at ABAP1 (Scatchard plot, r^2=0.94) is “approximately 0.8 mol ABA mol^−1 protein”. Further, the “time maximum binding activity remained stable” value at ABAP1 (additional time after reaching maximum binding) is no less than 3 h. Besides, the “maximum binding activity (total binding)” value on ABAP1 (association kinetics, total binding) is “≈ 0.7 mol ABA mol^−1 protein”.

For the origin of these results see patent US20080235828A1 (University of Manitoba, priority 2004, published 2008).
